One experiment concerns the target hNAMPT protein (Homo sapiens (Human), UniProt P43490). Put plainly: NAMPT enzyme assay (TR-FRET/HTRF with BodiPY ligand). The class given is binding. The conditions noted are these: for inhibition at 1 µM: NAMPT inhibition at compound concentration 1 μM, read-out: Percent Inhibition; for IC50: NAMPT inhibition, IC50 range class. A digest of the protocol:
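His-tagged hNAMPT with anti-6His-Tb, incubated with compound and BodiPY ligand for 1 h at rt in the dark, in Tris-HCl pH 7.5 buffer with DTT, NaCl, MgCl2 and Tween 20. TR-FRET measured with 320 nm excitation as the 520/486 nm emission ratio. IC50 fitted relative to DMSO controls.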
In general terms: In TR-FRET formats the signal depends on donor and acceptor labels being close together.

For a further experiment, the system named is PC3 cells. Put plainly: PC3 growth inhibition (Cell-titer glo, 72 hours). The class given is cell-based. Particulars: Homo sapiens, PC-3, 72 h, read-out: Percent Viability, PC3 cells, compound concentration 1.667 μM, 72 hours. An outline of the steps:
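PC3 cells grown in RPMI1640 plated at 8×10^4 cells/ml, incubated overnight, then exposed to compound diluted in AIM serum-free medium for 72 h at 37 °C, 5% CO2. Luminescence by CellTiter-Glo relative to DMSO controls; % viability at single concentration, GI50 or LD50 from concentration-response curves.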

The structures appear in SMILES notation.

Sequence of hNAMPT protein (P43490 whole entry): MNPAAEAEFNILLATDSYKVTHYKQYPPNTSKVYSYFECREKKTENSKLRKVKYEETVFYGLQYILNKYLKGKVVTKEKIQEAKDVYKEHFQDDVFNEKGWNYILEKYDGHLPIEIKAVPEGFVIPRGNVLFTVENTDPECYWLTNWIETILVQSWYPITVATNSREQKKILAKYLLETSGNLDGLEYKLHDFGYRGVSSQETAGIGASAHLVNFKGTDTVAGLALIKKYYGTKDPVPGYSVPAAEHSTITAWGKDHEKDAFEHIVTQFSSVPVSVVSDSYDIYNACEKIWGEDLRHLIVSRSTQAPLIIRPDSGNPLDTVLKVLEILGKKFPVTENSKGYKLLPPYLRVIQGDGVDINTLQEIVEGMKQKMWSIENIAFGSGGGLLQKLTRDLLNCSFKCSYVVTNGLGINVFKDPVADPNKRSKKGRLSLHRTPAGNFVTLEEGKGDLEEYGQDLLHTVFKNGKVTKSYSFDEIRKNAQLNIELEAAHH

For orientation: inhibition means the percentage by which the read-out fell short of the control. For orientation: IC50 means the point on the concentration scale where inhibition reaches its midpoint. On to `Cc1cc(-c2cc(-c3ccc(F)cc3)c3ccc(C(=O)NCCCc4nnc[nH]4)cc3n2)ccn1` [Compound I-157, N-(3-(4H-1,2,4-triazol-3-yl)propyl)-4-(4-fluorophenyl)-2-(2-methylpyridin-4-yl)quinoline-7-carboxamide], for which, at hNAMPT protein, the inhibition at 1 µM came out at 89% and the IC50 fell in the range of 0.05 to 0.1 µM. The viability at 1.667 µM in the experiment with PC3 cells amounted to 5%.
The matching figures for `CCOc1cc(-c2ccncc2C)nc2cc(C(=O)NCCCc3nnc[nH]3)ccc12` [Compound I-158, 4-ethoxy-2-(3-methylpyridin-4-yl)-N-[3-(4H-1,2,4-triazol-3-yl)propyl]quinoline-7-carboxamide]: 97%, 0.01 to 0.05 µM and 1%.
On to `CCOc1cc(-c2cc(C)cnc2OC)nc2cc(C(=O)NCCCc3nnc[nH]3)ccc12` [Compound I-159, 4-ethoxy-2-(2-methoxy-5-methylpyridin-3-yl)-N-[3-(4H-1,2,4-triazol-3-yl)propyl]quinoline-7-carboxamide], for which, on hNAMPT protein, the inhibition at 1 µM amounted to 99% and the half-inhibitory concentration (IC50) was 0.01 to 0.05 µM. The viability at 1.667 µM in the experiment with PC3 cells is 2%.
Consider `CCOc1cc(-c2ccc(F)cc2)nc2cc(C(=O)N[C@@H](C)c3nc4cnccc4[nH]3)ccc12` [Compound I-160, 4-ethoxy-2-(4-fluorophenyl)-N-[(1S)-1-(1H-imidazo[4,5-c]pyridin-2-yl)ethyl]quinoline-7-carboxamide], for which, at hNAMPT protein, the inhibition at 1 µM was 60% and the IC50 is > 0.1 µM. In the experiment on PC3 cells, the viability at 1.667 µM is > 99%.
The matching figures for `CCOc1cc(-c2cc(F)cnc2OC)nc2cc(C(=O)NCCCc3nnc[nH]3)ccc12` [Compound I-161, 4-ethoxy-2-(5-fluoro-2-methoxypyridin-3-yl)-N-[3-(4H-1,2,4-triazol-3-yl)propyl]quinoline-7-carboxamide]: 97%, 0.01 to 0.05 µM and 2%.
With `Cc1cc(-c2nc(-c3ccc(F)cc3)nc3cc(C(=O)NCCCc4nnc[nH]4)ccc23)ccn1` [Compound I-162, 2-(4-fluorophenyl)-4-(2-methylpyridin-4-yl)-N-[3-(4H-1,2,4-triazol-3-yl)propyl]quinazoline-7-carboxamide], on hNAMPT protein, the inhibition at 1 µM turned out to be 94% and the concentration for half-maximal inhibition (IC50) fell in the range of 0.01 to 0.05 µM. The viability at 1.667 µM with PC3 cells amounted to 2%.
Turning to `CCCc1cc(-c2ccc(F)cc2)nc2cc(C(=O)NCCCc3ncc[nH]3)ccc12` [Compound I-163, 2-(4-fluorophenyl)-N-[3-(1H-imidazol-2-yl)propyl]-4-propylquinoline-7-carboxamide], on hNAMPT protein, the inhibition at 1 µM was 97% and the IC50 was < 0.01 µM. Further, the viability at 1.667 µM in the experiment on PC3 cells came to 2%.
The matching figures for `CCOc1cc(-c2cc(OC)ncc2Cl)nc2cc(C(=O)NCCCc3nnc[nH]3)ccc12` [Compound I-164, 2-(5-chloro-2-methoxypyridin-4-yl)-4-ethoxy-N-[3-(4H-1,2,4-triazol-3-yl)propyl]quinoline-7-carboxamide]: 97%, < 0.01 µM and 2%.
As for `CCOc1cc(-c2ccc(F)cc2OC)nc2cc(C(=O)NCCCc3nnc[nH]3)ccc12` [Compound I-165, 4-ethoxy-2-(4-fluoro-2-methoxyphenyl)-N-[3-(4H-1,2,4-triazol-3-yl)propyl]quinoline-7-carboxamide], on hNAMPT protein, the inhibition at 1 µM came to 99% and the IC50 is 0.01 to 0.05 µM. Besides, the viability at 1.667 µM in the experiment on PC3 cells was determined as 1%.
Consider `CCOc1cc(-c2ccnc(OC)c2Cl)nc2cc(C(=O)NCCCc3nnc[nH]3)ccc12` [Compound I-166, 2-(3-chloro-2-methoxypyridin-4-yl)-4-ethoxy-N-[3-(4H-1,2,4-triazol-3-yl)propyl]quinoline-7-carboxamide], for which, at hNAMPT protein, the inhibition at 1 µM turned out to be 94% and the IC50 fell in the range of 0.01 to 0.05 µM. In the experiment on PC3 cells, the viability at 1.667 µM amounted to 2%.

The values above are taken from patent US10323018B2 (Millennium Pharmaceuticals, Inc., priority 2015, dated 2019).
